What was measured:
p21 gene expression [1] = assay: Gene expression analysis of PBMC samples from relapsed/refractory myelofibrosis patients: p21; type: in vivo, human; conditions: R/R myelofibrosis patients, 120 mg or 240 mg for 7 days or 240 mg for 5 days, C1D1 pre-dose vs C1D5, C1D6/8, FIG. 1
Description: (§1) FIG. 1 illustrates that the compound of Formula (I) induces p21 and represses Myc in relapsed/refractory myelofibrosis (R/R MF) patients. PBMC samples from the patients were used for the gene expression analyses. fdr.q refers to false discovery rate adjusted significance value for change in normalized gene expression. C1D1 refers to Cycle 1, Day 1. C1D5 refers to Cycle 1, Day 5. C1D6/8 refers to Cycle 1, Day 6 or 8.
(§2) Effects of the compound of Formula (I) were investigated on the gene expression of p21 and Myc in the patients of relapsed/refractory myelofibrosis. In the study, The compound of Formula (I) is administered at 120 mg for 7 days for Cohort 1, 240 mg for 7 days for Cohort 2, 240 mg for 7 days for Cohort 3, and 240 mg for 5 days for Cohort 4.
(§3) The peripheral blood mononuclear cell (PBMC) samples were taken from the patients pre-dosing on day 1 of cycle 1, day 5 of cycle 1, day 6 of cycle 1, and day 8 of cycle 1.

Myc gene expression [2] = assay: Gene expression analysis of PBMC samples from relapsed/refractory myelofibrosis patients: Myc; type: in vivo, human; conditions: R/R myelofibrosis patients, 120 mg or 240 mg for 7 days or 240 mg for 5 days, C1D1 pre-dose vs C1D5, C1D6/8, FIG. 1
Description: as §1, §2, §3

p21 gene expression [3] = assay: Gene expression analysis of PBMC samples from relapsed/refractory AML patients: p21; type: in vivo, human; conditions: R/R AML patients, 120, 180, 240 or 360 mg daily for seven days, C1D1 pre-dose vs C1D5, FIG. 2
Protocol: (§4) FIG. 2 illustrates that the compound of Formula (I) induces p21 and represses Myc in relapsed/refractory acute myeloid leukemia (AML) patients. PBMC samples from the patients were used for the gene expression analyses. C1D1 refers to Cycle 1 Day 1. C1D5 refers to Cycle 1 Day 5.
(§5) Effects of the compound of Formula (I) were investigated on the gene expression of p21 and Myc in the AML patients.
(§6) In dose-escalation phase study, the dosing of the compound of Formula (I) is 120 mg (three patients); 180 mg (2 patients), 240 mg (8 patients), and 360 mg (4 patients) daily for seven days, with different ‘off-treatment’ duration depending on cohort assignments. The peripheral blood mononuclear cell (PBMC) samples were taken from patients pre-dosing on day 1 of cycle 1, and day 5 of cycle 1.

Myc gene expression [4] = assay: Gene expression analysis of PBMC samples from relapsed/refractory AML patients: Myc; type: in vivo, human; conditions: R/R AML patients, 120, 180, 240 or 360 mg daily for seven days, C1D1 pre-dose vs C1D5, FIG. 2
Protocol: as §4, §5, §6

[5] = test system: other members of the CD28 family; conditions: selectivity; cited from earlier work

Compound	effect on p21 gene expression (p21 gene expression [1])	effect on Myc gene expression (Myc gene expression [2])	effect on p21 gene expression (p21 gene expression [3])	effect on Myc gene expression (Myc gene expression [4])	binding to other members of the CD28 family [5]
CC(C)[C@@H](CS(=O)(=O)C(C)C)N1C(=O)[C@@](C)(CC(=O)O)CC(c2cccc(Cl)c2)[C@H]1c1ccc(Cl)cc1 (stereo partly drawn) [Formula (I), 2-((3R,5R,6S)-5-(3-chlorophenyl)-6-(4-chlorophenyl)-1-((S)-1-(isopropylsulfony1)-3-methylbutan-2-y1)-3-methyl-2-oxopiperidin-3-yl) acetic acid]	induces	represses	induces	represses	
5C4: fully human IgG4 antibody blocking the PD-1 receptor; 5C4 in WO 2006/121168 and U.S. Pat. No. 8,008,449 [Formula 5C4]					do not bind

From patent publication US20250134877A1, “METHODS OF TREATING CANCER DEPENDENT ON MYC GENE EXPRESSSION” (KARTOS THERAPEUTICS, priority 2021, published 2025)
